Active and inactive are the calls of the source. No cut-off for these calls is given here.
Experiments:
[1] = target: T1, DNA repair protein RAD51 homolog 1 (Homo sapiens, UniProt Q06609); assay: Displacement of N-terminal biotinylated-BRC4 from recombinant human Rad51 expressed in Escherichia coli by ELISA
T1 sequence (Q06609 whole entry): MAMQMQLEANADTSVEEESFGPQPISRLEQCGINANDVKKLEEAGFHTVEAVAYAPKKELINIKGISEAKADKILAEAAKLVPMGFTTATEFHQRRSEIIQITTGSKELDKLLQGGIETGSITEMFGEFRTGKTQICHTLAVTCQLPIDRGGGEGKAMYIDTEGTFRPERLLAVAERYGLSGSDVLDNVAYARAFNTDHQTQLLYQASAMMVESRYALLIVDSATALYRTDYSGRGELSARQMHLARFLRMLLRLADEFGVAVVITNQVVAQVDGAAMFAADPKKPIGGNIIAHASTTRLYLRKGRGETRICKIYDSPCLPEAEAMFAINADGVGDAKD

[2] = Solubility of the compound in RPMI 1640 medium; assay type: physicochemical
[3] = target: T2, DNA repair protein RAD51 homolog 1 (Homo sapiens) (UniProt Q06609); assay: Binding affinity to Rad51 in human BxPC3 cells assessed as reduction in protein-mediated homologous recombination at 40 uM measured after 16 hrs by reporter gene based PCR analysis relative to control; assay type: cell-based; parameters: scale not given: the % may be the effect or the level left
T2 sequence (whole entry): T1 sequence (Q06609 whole entry)

CAPAN-1 [4] = assay: Effect on homologous recombination in human Capan1 cells at 20 to 40 uM measured after 16 hrs by reporter gene based PCR analysis; assay type: functional, cell-based
BXPC-3 [5] = assay: Synergistic cytotoxicity against human BxPC3 cells assessed as reduction in cell viability at 40 uM measured after 72 hrs in presence of PARP inhibitor olaparib by crystal violet staining based assay; assay type: functional
CAPAN-1 [6] = assay: Synergistic cytotoxicity against human Capan1 cells assessed as reduction in cell viability at 40 uM measured after 72 hrs in presence of PARP inhibitor olaparib by crystal violet staining based assay; assay type: functional
[7] = target: T2, DNA repair protein RAD51 homolog 1 (Homo sapiens); assay: Binding affinity to Rad51 in human BxPC3 cells assessed as reduction in protein-mediated homologous recombination at 5 to 30 uM measured after 16 hrs by reporter gene based PCR analysis; assay type: cell-based
[8] = target: T2, DNA repair protein RAD51 homolog 1 (Homo sapiens); assay: Binding affinity to Rad51 in human BxPC3 cells assessed as reduction in protein-mediated homologous recombination at 20 uM measured after 16 hrs by reporter gene based PCR analysis relative to control; assay type: cell-based; parameters: scale not given: the % may be the effect or the level left
CAPAN-1 [9] = assay: Effect on homologous recombination in human Capan1 cells at 10 to 20 uM measured after 16 hrs by reporter gene based PCR analysis; assay type: functional, cell-based
BXPC-3 [10] = assay: Synergistic cytotoxicity against human BxPC3 cells assessed as reduction in cell viability at 20 uM measured after 72 hrs in presence of PARP inhibitor olaparib by crystal violet staining based assay; assay type: functional
CAPAN-1 [11] = assay: Synergistic cytotoxicity against human Capan1 cells assessed as reduction in cell viability at 20 uM measured after 72 hrs in presence of PARP inhibitor olaparib by crystal violet staining based assay; assay type: functional
BXPC-3 [12] = assay: Synergistic cytotoxicity against human BxPC3 cells assessed as reduction in cell viability measured after 72 hrs in presence of PARP inhibitor olaparib by crystal violet staining based assay; assay type: functional
BXPC-3 [13] = assay: Synergistic cytotoxicity against human BxPC3 cells assessed as reduction in cell viability at 20 uM measured after 144 hrs in presence of PARP inhibitor olaparib by CellTox green dye based fluorescence assay; assay type: functional
BXPC-3 [14] = assay: Synergistic cytotoxicity against human BxPC3 cells assessed as combination index at 20 uM measured after 144 hrs in presence of PARP inhibitor olaparib by CellTox green dye based fluorescence assay; assay type: functional
BXPC-3 [15] = assay: Induction of DNA damage in human BxPC3 cells assessed as increase in gammaH2AX phosphorylation level at 20 uM measured after 144 hrs in presence of PARP inhibitor olaparib by Western blotting analysis relative to control; assay type: functional
BXPC-3 [16] = assay: Induction of DNA damage in human BxPC3 cells assessed as increase in gammaH2AX phosphorylation level at 20 uM measured after 144 hrs by Western blotting analysis; assay type: functional, cell-based
BXPC-3 [17] = assay: Induction of apoptosis in human BxPC3 cells assessed as increase in PUMA level at 20 uM measured after 144 hrs by Western blotting analysis; assay type: functional, cell-based
BXPC-3 [18] = assay: Induction of apoptosis in human BxPC3 cells assessed as increase in BAX level at 20 uM measured after 144 hrs by Western blotting analysis; assay type: functional, cell-based
BXPC-3 [19] = assay: Induction of apoptosis in human BxPC3 cells assessed as caspase-3 activation at 20 uM measured after 144 hrs by Western blotting analysis; assay type: functional, cell-based

| SMILES | EC50 [1] | further results |
| --- | --- | --- |
| O=C(CSc1nnc(Cn2c(=O)sc3ccccc32)n1CCc1ccccc1O)NC1CCCC1 | Not Active | – |
| O=C(CSc1nnc(Cn2ccsc2=O)n1CCCc1ccccc1)NC1CCCC1 | Not Active | – |
| Cc1nnc(SCC(=O)NC2CCCC2)n1CCc1ccccc1 | Not Active | – |
| O=C(CSc1nnc(Cn2c(=O)sc3ccccc32)n1CCc1cccc(F)c1)NC1CCCC1 | Not Active | – |
| O=C(CSc1nnc(Cn2c(=O)sc3ccccc32)n1CCc1ccccc1)NCc1ccccc1 | Not Active | – |
| O=C(CSc1nnc(Cn2c(=O)sc3ccccc32)n1CCc1ccccc1)N1CCOCC1 | Not Active | – |
| O=C(CSc1nnc(Cn2c(=O)sc3ccccc32)n1CCCc1ccccc1)NC1CCC1 | – | EC50 ([1]; read-out: EC50): 42 µM; solubility [2]: Insoluble |
| O=C(CSc1nnc(Cn2c(=O)sc3ccccc32)n1CCCc1ccccc1)NC1CC1 | – | EC50 ([1]; read-out: EC50): 24 µM; Activity [3]: 24%; Activity (CAPAN-1 [4]): inactive; Activity (BXPC-3 [5]): inactive; Activity (CAPAN-1 [6]): inactive |
| O=C(CSc1nnc(Cn2c(=O)sc3ccccc32)n1CCCc1ccncc1)NC1CCCC1 | Not Active | – |
| Cc1cccc(CCn2c(Cn3c(=O)sc4ccccc43)nnc2SCC(=O)NC2CCCC2)c1 | Not Active | – |
| NC(=O)CSc1nnc(Cn2c(=O)sc3ccccc32)n1CCc1ccccc1 | Not Active | – |
| O=C(CSc1nnc(Cn2c(=O)sc3ccccc32)n1CCc1ccccc1)NC1CC1 | Not Active | – |
| O=C(CSc1nnc(Cn2c(=O)sc3ccccc32)n1CCCc1ccccc1)N1CCCCC1 | Not Active | – |
| O=C(CSc1nnc(Cn2c(=O)sc3ccccc32)n1CCc1ccccc1)N1CCCC1 | Not Active | – |
| Cc1ccc(C#N)c(=O)n1Cc1nnc(SCC(=O)NC2CCCC2)n1CCCc1ccccc1 | Not Active | – |
| O=C(CSc1nnc(Cn2c(=O)sc3ccccc32)n1CCc1ccccc1F)NC1CCCC1 | Not Active | – |
| O=C(CSc1nnc(Cn2c(=O)sc3ccccc32)n1CCCc1ccccn1)NC1CCCC1 | Not Active | – |
| Cl.NCc1ccc(-c2nnc(SCC(=O)NC3CCCC3)n2CCc2ccccc2)cc1 | Not Active | – |
| O=C(CSc1nnc(Cn2c(=O)sc3ccccc32)n1CCc1ccccc1)Nc1ccccc1 | – | EC50 ([1]; read-out: EC50): 95 µM |
| O=C(CSc1nnc(Cn2c(=O)sc3ccccc32)n1CCc1cccc(O)c1)NC1CCCC1 | Not Active | – |
| O=C(CSc1nnc(Cn2c(=O)sc3ccccc32)n1CCc1ccccc1)NCc1ccc(F)cc1 | Not Active | – |

| SMILES | EC50 [1] | further results |
| --- | --- | --- |
| O=C(CSc1nnc(Cn2c(=O)sc3ccccc32)n1CCCc1ccccc1)Nc1ccccc1 | Not Active | – |
| Cc1ccccc1CCn1c(Cn2c(=O)sc3ccccc32)nnc1SCC(=O)NC1CCCC1 | – | EC50 ([1]; read-out: EC50): 100 µM |
| Cl.Nc1cccn(Cc2nnc(SCC(=O)NC3CCCC3)n2CCCc2ccccc2)c1=O | Not Active | – |
| O=C(CSc1nnc(Cn2c(=O)oc3ccccc32)n1CCCc1ccccc1)NC1CCCC1 | – | EC50 ([1]; read-out: EC50): 90 µM |
| O=C(CSc1nnc(Cn2c(=O)sc3ccc(O)cc32)n1CCc1ccccc1)NC1CCCC1 | Not Active | – |
| O=C(CSc1nnc(Cn2c(=O)sc3ccccc32)n1CCCc1cccnc1)NC1CCCC1 | Not Active | – |
| O=C(CSc1nnc(Cn2c(=O)sc3ccccc32)n1CCc1ccc(F)cc1)NC1CCCC1 | Not Active | – |
| O=C(CSc1nncn1CCc1ccccc1)NC1CCCC1 | Not Active | – |
| O=C(CSc1nnc(Cn2c(=O)sc3ccccc32)n1CCCc1ccccc1)C1CCCC1 | Not Active | – |
| O=C(CSc1nnc(Cn2c(=O)sc3ccccc32)n1CCc1ccccc1)NC1CCCC1 | – | EC50 ([1]; read-out: EC50): 53 µM |
| O=C(CSc1nnc(Cn2c(=O)sc3ccccc32)n1CCc1ccccc1)NC1CCCCC1 | Not Active | – |
| COc1ccc2sc(=O)n(Cc3nnc(SCC(=O)NC4CCCC4)n3CCc3ccccc3)c2c1 | Not Active | – |
| O=C(CSc1nnc(Cn2c(=O)sc3ccccc32)n1CCCc1ccccc1)NC1CCCC1 | – | EC50 ([1]; read-out: EC50): 25 µM; Activity [7]: inactive |
| O=c1sc2ccccc2n1Cc1nnc(S)n1CCc1ccccc1 | Not Active | – |
| O=C(CSc1nnc(CNc2ccccc2)n1CCc1ccccc1)NC1CCCC1 | Not Active | – |
| O=C(CSc1nnc(Cn2c(=O)[nH]c3ccccc32)n1CCCc1ccccc1)NC1CCCC1 | Not Active | – |
| CN1CCC(NC(=O)CSc2nnc(Cn3c(=O)sc4ccccc43)n2CCCc2ccccc2)CC1 | Not Active | – |
| O=C(CSc1nnc(Cn2c(=O)sc3ccccc32)n1CCCc1ccccc1)NC1CCCCC1 | – | EC50 ([1]; read-out: EC50): 8 µM; Activity [8]: 40%; Activity (CAPAN-1 [9]): inactive; Activity (BXPC-3 [10]): Active; Activity (CAPAN-1 [11]): inactive; Activity (BXPC-3 [12]): Dose-dependent effect; Activity (BXPC-3 [13]): Active; CI (BXPC-3 [14]): 0.76; Activity (BXPC-3 [15]): >70%; Activity (BXPC-3 [16]): inactive; Activity (BXPC-3 [17]): inactive; Activity (BXPC-3 [18]): inactive; Activity (BXPC-3 [19]): inactive |
| O=C(CSc1nnc(Cn2c(=O)sc3ccc(F)cc32)n1CCc1ccccc1)NC1CCCC1 | Not Active | – |
| O=C(CSc1nnc(CN2CCSC2=O)n1CCCc1ccccc1)NC1CCCC1 | Not Active | – |

— ChEMBL document CHEMBL4480388, “Rad51/BRCA2 disruptors inhibit homologous recombination and synergize with olaparib in pancreatic cancer cells” (Eur J Med Chem, 2019)
